Reference: patent US10711004B2 (Genentech, Inc., priority 2018, dated 2020)
Like-named read-outs stand apart in the source and are kept apart here.

Target: human TRPA1 channel (Homo sapiens (Human), UniProt O75762)
Assay: hTRPA1 CHO Ca2+ FLIPR Tetra assay, block of cinnamaldehyde induced calcium influx
Assay type: cell-based
Details: CHO cells expressing TRPA1, Hill coefficient fixed to 1.5
Method: CHO cells expressing TRPA1 were plated into 384-well plates, incubated overnight at 37° C., and loaded with BD calcium indicator dye for 1 hr at 37° C. followed by 15 minutes at room temperature. The assay buffer was Hank's Balanced Salt Solution (HBSS) containing 20 mM HEPES (pH readjusted to 7.4) along with 0.02% BSA.
Following dye load and plate cool down, compounds were added to the cells using FLIPR Tetra. Plates were then incubated with compounds for 10 minutes or 90 minutes at room temperature prior to adding agonist. Following this incubation, about an EC50 concentration of cinnamaldehyde (75) was added to active the channels and block of cinnamaldehyde induced calcium influx was measured.
Fixing the Hill coefficient will generally reduce variability of the IC50 determination. The IC50 results were individually examined to make sure the MIN and MAX points were set correctly prior to validation of the results.

[1] = read-out: hTRPA1 IC50 (10 min), compounds incubated 10 minutes at room temperature before cinnamaldehyde agonist
[2] = read-out: hTRPA1 IC50 (90 min), compounds incubated 90 minutes at room temperature before cinnamaldehyde agonist
[3] = compounds incubated 10 minutes at room temperature before cinnamaldehyde agonist

Sequence of human TRPA1 channel (O75762 whole entry): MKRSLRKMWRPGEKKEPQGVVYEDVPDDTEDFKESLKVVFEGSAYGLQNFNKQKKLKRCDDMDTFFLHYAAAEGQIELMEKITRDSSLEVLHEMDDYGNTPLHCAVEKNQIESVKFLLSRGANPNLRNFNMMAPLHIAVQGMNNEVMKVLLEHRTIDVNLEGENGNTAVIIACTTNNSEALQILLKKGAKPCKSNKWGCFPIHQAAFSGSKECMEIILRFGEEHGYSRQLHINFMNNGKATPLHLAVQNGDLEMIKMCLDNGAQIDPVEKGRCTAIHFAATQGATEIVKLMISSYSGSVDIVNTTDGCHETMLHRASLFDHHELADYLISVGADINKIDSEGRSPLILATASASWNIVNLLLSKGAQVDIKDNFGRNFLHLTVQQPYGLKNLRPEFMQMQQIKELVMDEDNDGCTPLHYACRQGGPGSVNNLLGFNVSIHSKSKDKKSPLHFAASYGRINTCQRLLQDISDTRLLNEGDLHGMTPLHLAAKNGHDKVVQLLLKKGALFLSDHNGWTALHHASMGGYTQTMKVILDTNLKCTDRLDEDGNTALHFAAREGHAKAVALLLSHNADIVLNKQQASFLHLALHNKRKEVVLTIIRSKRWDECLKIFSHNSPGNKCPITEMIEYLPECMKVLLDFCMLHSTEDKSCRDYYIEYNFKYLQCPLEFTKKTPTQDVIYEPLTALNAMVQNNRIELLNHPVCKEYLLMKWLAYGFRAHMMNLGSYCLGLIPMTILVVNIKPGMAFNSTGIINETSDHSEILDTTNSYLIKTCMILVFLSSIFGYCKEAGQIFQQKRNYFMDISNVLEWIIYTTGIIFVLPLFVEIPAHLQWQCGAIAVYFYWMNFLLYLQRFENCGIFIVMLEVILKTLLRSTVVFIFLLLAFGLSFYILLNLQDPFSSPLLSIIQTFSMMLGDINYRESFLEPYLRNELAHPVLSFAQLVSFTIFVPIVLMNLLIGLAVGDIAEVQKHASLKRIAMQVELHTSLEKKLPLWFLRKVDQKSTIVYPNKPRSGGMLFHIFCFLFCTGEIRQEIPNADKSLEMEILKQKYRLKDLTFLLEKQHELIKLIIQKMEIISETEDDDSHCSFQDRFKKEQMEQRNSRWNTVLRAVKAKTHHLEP

IC50 [1] [nM]	IC50 [2] [nM]	IC50 [3] [nM]	IC50 (compounds incubated 90 minutes at room temperature before cinnamaldehyde agonist) [nM]	SMILES
49.9	46	–	–	Cn1cnc2ncn(Cc3nc([C@H]4[C@@H]5Oc6c(Cl)cccc6[C@@H]54)no3)c(=O)c21 [Example Compound 186, 1-((3-((1S,1aR,6bS)-3-chloro-1a,6b-dihydro-1H-cyclopropa[b]benzofuran-1-yl)-1,2,4-oxadiazol-5-yl)methyl)-7-methyl-1,7-dihydro-6H-purin-6-one]
83	–	–	–	Cn1cnc2ncn(Cc3nc([C@H]4C[C@H](c5cccc(F)c5)C4)no3)c(=O)c21 [Example Compound 191, 1-((3-((1r,3r)-3-(3-fluorophenyl)cyclobutyl)-1,2,4-oxadiazol-5-yl)methyl)-7-methyl-1,7-dihydro-6H-purin-6-one]
19.2	7.5	–	–	Cc1cnn2ncn(Cc3nc([C@H]4[C@@H]5CN(c6cc(F)ccn6)C[C@@H]54)no3)c(=O)c12 [Example Compound 117, 3-((3-((1R,5S,6r)-3-(4-fluoropyridin-2-yl)-3-azabicyclo[3.1.0]hexan-6-yl)-1,2,4-oxadiazol-5-yl)methyl)-5-methylpyrazolo[5,1-f][1,2,4]triazin-4(3H)-one]
61.1	50	–	–	Cc1ncn2ncn(Cc3nc([C@H]4[C@@H]5CN(c6cc(Cl)ccn6)C[C@@H]54)no3)c(=O)c12 [Example Compound 116, 3-((3-((1R,5S,6r)-3-(4-chloropyridin-2-yl)-3-azabicyclo[3.1.0]hexan-6-yl)-1,2,4-oxadiazol-5-yl)methyl)-5-methylimidazo[5,1-f][1,2,4]triazin-4(3H)-one]
37.1	32	–	–	Cn1cnc2ncn(Cc3nc([C@H]4[C@@H]5CN(c6cc(Cl)cc(C#N)c6)C[C@@H]54)no3)c(=O)c21 [Example Compound 193, 3-chloro-5-((1R,5S,6r)-6-(5-((7-methyl-6-oxo-6,7-dihydro-1H-purin-1-yl)methyl)-1,2,4-oxadiazol-3-yl)-3-azabicyclo[3.1.0]hexan-3-yl)benzonitrile]
33.7	28	–	–	Cc1ccnc2ncn(Cc3nc([C@H]4C[C@](F)(c5cccc(F)c5)C4)no3)c(=O)c12 [Example Compound 143, 3-((3-((1s,3s)-3-fluoro-3-(3-fluorophenyl)cyclobutyl)-1,2,4-oxadiazol-5-yl)methyl)-5-methylpyrido[2,3-d]pyrimidin-4(3H)-one]
209	210	–	–	Cn1cnc2ncn(Cc3nc([C@H]4[C@@H]5C=C(c6ccccn6)C[C@@H]54)no3)c(=O)c21 [Example Compound 129, 7-methyl-1-((3-((1S,5S,6R)-3-(pyridin-2-yl)bicyclo[3.1.0]hex-2-en-6-yl)-1,2,4-oxadiazol-5-yl)methyl)-1,7-dihydro-6H-purin-6-one]
–	–	29.9	–	Cc1cncc2ncn(Cc3nc([C@@H]4[C@H]5Cc6ccccc6[C@H]54)no3)c(=O)c12 (stereo in doubt) [Example Compound 19, 5-methyl-3-[[3-[rac-(1R,1 aR,6aS)-1,1a,6,6a-tetrahydrocyclopropa[a]inden-1-yl]-1,2,4-oxadiazol-5-yl]methyl]pyrido[3,4-d]pyrimidin-4-one]
10.9	7.5	–	–	Cn1cnc2ncn(Cc3nc([C@@H]4[C@H]5C=C(c6ccc(F)cc6)C[C@H]54)no3)c(=O)c21 [Example Compound 124, 1-((3-((1R,5R,6S)-3-(4-fluorophenyl)bicyclo[3.1.0]hex-2-en-6-yl)-1,2,4-oxadiazol-5-yl)methyl)-7-methyl-1,7-dihydro-6H-purin-6-one]
57.8	–	–	–	Cc1ccnc2ncn(Cc3nc([C@H]4C[C@](O)(c5cccc(Cl)c5)C4)no3)c(=O)c12
348	440	–	–	Cn1cnc2ncn(Cc3nc([C@@H]4[C@H]5C=C(c6cccnc6)C[C@H]54)no3)c(=O)c21 [Example Compound 134, 7-methyl-1-((3-((1R,5R,6S)-3-(pyridin-3-yl)bicyclo[3.1.0]hex-2-en-6-yl)-1,2,4-oxadiazol-5-yl)methyl)-1,7-dihydro-6H-purin-6-one]
119	68	–	–	Cn1cnc2ncn(Cc3nc([C@@H]4[C@H]5C=C(c6cc(Cl)ccn6)C[C@H]54)no3)c(=O)c21 [Example Compound 159, 1-((3-((1R,5R,6S)-3-(4-chloropyridin-2-yl)bicyclo[3.1.0]hex-2-en-6-yl)-1,2,4-oxadiazol-5-yl)methyl)-7-methyl-1,7-dihydro-6H-purin-6-one]
42.6	35	–	–	COCCNc1nc2ncn(Cc3nc([C@@H]4[C@H]5C=C(c6ccccc6)C[C@H]54)no3)c(=O)c2n1C [Example Compound 260, 8-(2-methoxyethylamino)-7-methyl-1-[[3-[(1R,5R,6S)-3-phenyl-6-bicyclo[3.1.0]hex-2-enyl]-1,2,4-oxadiazol-5-yl]methyl]purin-6-one]
6.17	5.1	15.4	8.5	O=c1c2cccnc2cnn1Cc1nc([C@H]2[C@@H]3CN(c4ccccc4)C[C@@H]32)no1 [Example Compound 213, 6-((3-((1R,5S,6r)-3-phenyl-3-azabicyclo[3.1.0]hexan-6-yl)-1,2,4-oxadiazol-5-yl)methyl)pyrido[2,3-d]pyridazin-5(6H)-one]
71.4	–	–	–	Cc1cncc2ncn(Cc3nc([C@H]4[C@@H]5CN(c6ccc(Cl)cc6)C[C@@H]54)no3)c(=O)c12 [Example Compound 36, 5-methyl-3-[[3-[(1R,5S,6r)-3-(4-chlorophenyl)-3-azabicyclo[3.1.0]hexan-6-yl]-1,2,4-oxadiazol-5-yl]methyl]pyrido[3,4-d]pyrimidin-4-one]
68.7	26	–	–	CN(C)C(=O)CNc1nc2ncn(Cc3nc([C@H]4[C@@H]5C=C(c6ccccc6)C[C@@H]54)no3)c(=O)c2n1C [Example Compound 244, N,N-dimethyl-2-[[7-methyl-6-oxo-1-[[3-[(1S,5S,6R)-3-phenyl-6-bicyclo[3.1.0]hex-2-enyl]-1,2,4-oxadiazol-5-yl]methyl]purin-8-yl]amino]acetamide]
78.3	72	–	–	Cn1cnc2ncn(Cc3nc([C@H]4[C@@H]5CN(c6cccc(-c7ncco7)c6)C[C@@H]54)no3)c(=O)c21 [Example Compound 190, 7-methyl-1-((3-((1R,5S,6r)-3-(3-(oxazol-2-yl)phenyl)-3-azabicyclo[3.1.0]hexan-6-yl)-1,2,4-oxadiazol-5-yl)methyl)-1,7-dihydro-6H-purin-6-one]
21.7	6.6	–	–	Cn1cnc2ncn(Cc3nc([C@H]4[C@@H]5C=C(c6ccc(C#N)cc6)C[C@@H]54)no3)c(=O)c21 [Example Compound 256, 4-[(1S,5S,6R)-6-[5-[(7-methyl-6-oxo-purin-1-yl)methyl]-1,2,4-oxadiazol-3-yl]-3-bicyclo[3.1.0]hex-2-enyl]benzonitrile]
49.5	37	–	–	Cn1cnc2ncn(Cc3nc([C@@H]4[C@H]5C=C(c6cccc(C(F)F)c6)C[C@H]54)no3)c(=O)c21 [Example Compound 102, 1-((3-((1R,5R,6S)-3-(3-(difluoromethyl)phenyl)bicyclo[3.1.0]hex-2-en-6-yl)-1,2,4-oxadiazol-5-yl)methyl)-7-methyl-1,7-dihydro-6H-purin-6-one]
189	96	–	–	Cn1cnc2ncn(Cc3nc([C@H]4[C@@H]5C=C(c6ccncc6)C[C@@H]54)no3)c(=O)c21 [Example Compound 126, 7-methyl-1-((3-((1S,5S,6R)-3-(pyridin-4-yl)bicyclo[3.1.0]hex-2-en-6-yl)-1,2,4-oxadiazol-5-yl)methyl)-1,7-dihydro-6H-purin-6-one]
63.8	10	–	–	Cn1cnc2ncn(Cc3nc([C@H]4[C@@H]5CN(c6ccc7ncsc7c6)C[C@@H]54)no3)c(=O)c21 [Example Compound 211, 1-((3-((1R,5S,6r)-3-(benzo[d]thiazol-6-yl)-3-azabicyclo[3.1.0]hexan-6-yl)-1,2,4-oxadiazol-5-yl)methyl)-7-methyl-1,7-dihydro-6H-purin-6-one]
57.9	23	–	–	Cn1cnc2ncn(Cc3nc([C@H]4[C@@H]5CN(c6ccc(C#N)cc6F)C[C@@H]54)no3)c(=O)c21 [Example Compound 247, 3-fluoro-4-[(1S,5R)-6-[5-[(7-methyl-6-oxo-purin-1-yl)methyl]-1,2,4-oxadiazol-3-yl]-3-azabicyclo[3.1.0]hexan-3-yl]benzonitrile]
22.2	–	–	–	Cn1cnc2ncn(Cc3nc([C@H]4CC[C@H](c5ccc(Cl)cc5)C4)no3)c(=O)c21 [Example Compound 223, 1-((3-((1S,3S)-3-(4-chlorophenyl)cyclopentyl)-1,2,4-oxadiazol-5-yl)methyl)-7-methyl-1,7-dihydro-6H-purin-6-one]
179	160	–	–	Cn1cnc2ncn(Cc3nc([C@H]4[C@@H]5C=C(c6cccnc6)C[C@@H]54)no3)c(=O)c21 [Example Compound 133, 7-methyl-1-((3-((1S,5S,6R)-3-(pyridin-3-yl)bicyclo[3.1.0]hex-2-en-6-yl)-1,2,4-oxadiazol-5-yl)methyl)-1,7-dihydro-6H-purin-6-one]
